Molecules are shown by their SMILES. Read-outs that look alike come from different tables or passages of the source.

The target of assay [1] is unphosphorylated c-FMS kinase (uFMS, Seq. ID no. 1) (Homo sapiens (Human), UniProt P07333). Nature of the assay: uFMS kinase assay (ADP production coupled to pyruvate kinase/lactate dehydrogenase). The following applies: enzymatic assay, ATP 500 μM. It counts as biochemical. The protocol: uFMS kinase (Seq. ID No. 1) Assay
In this assay, the oxidation of NADH (thus the decrease at A340 nm) was continuously monitored spectrophometrically. The reaction mixture (100 μL) contained FMS (purchased from Millipore) (10 nM), polyE4Y (1 mg/mL), MgCl2 (10 mM), pyruvate kinase (4 units), lactate dehydrogenase (0.7 units), phosphoenol pyruvate (1 mM), NADH (0.28 mM) and ATP (500 μM) in 90 mM Tris buffer containing 0.2% octyl-glucoside and 1% DMSO, pH 7.5. The inhibition reaction was started by mixing serial diluted test compound with the above reaction mixture. The absorption at 340 nm was monitored continuously for 4 hours at 30° C. on Synergy 2 plate reader. The reaction rate was calculated using the 3 to 4 h time frame. Percent inhibition was obtained by comparison of reaction rate with that of a control (i.e., in the absence of test compound). IC50 values were calculated from a series of percent inhibition values determined at a range of inhibitor concentrations using software routines as implemented in the GraphPad Prism software package.
uFMS Kinase Sequence (Y538-End) Used for Screening (Seq. ID No. 1)

Assay [2] deals with M-NFS-60 cells. Nature of the assay: M-NFS-60 cell proliferation assay (resazurin). It counts as cell-based. As to conditions: 67 h incubation. The procedure: M-NFS-60 cells (catalog #CRL-1838) were obtained from the American Type Culture Collection (ATCC, Manassas, Va.). Briefly, cells were grown in suspension in RPMI 1640 medium supplemented with 10% characterized fetal bovine serum (Invitrogen, Carlsbad, Calif.), 0.05 mM 2-mercaptoethanol, and 20 ng/mL mouse recombinant macrophage colony stimulating factor (M-CSF) at 37° C., 5% CO2, and 95% humidity. Cells were allowed to expand until reaching saturation at which point they were subcultured or harvested for assay use.
M-NFS-60 Cell Proliferation Assay
A serial dilution of test compound was dispensed into a 384-well black clear bottom plate (Corning, Corning, N.Y.). Two thousand five hundred cells were added per well in 50 μL complete growth medium. Plates were incubated for 67 h at 37° C., 5% CO2, and 95% humidity. At the end of the incubation period 10 μL of a 440 μM solution of resazurin (Sigma, St. Louis, Mo.) in PBS was added to each well and incubated for an additional 5 h at 37° C., 5% CO2, and 95% humidity. Plates were read on a Synergy2 reader (Biotek, Winooski, Vt.) using an excitation of 540 nm and an emission of 600 nm. IC50 values were calculated from a series of percent inhibition values determined at a range of inhibitor concentrations using software routines as implemented in the GraphPad Prism software package.

Assay [3] deals with osteoclast precursors. Nature of the assay: Osteoclast tartrate-resistant acid phosphatase assay. It counts as cell-based. As to conditions: Osteoclast, 7-14 days, RANKL and M-CSF. The procedure: Osteoclast Tartrate-Resistant Acid Phosphatase Assay
A serial dilution of test compound was dispensed into a 384-well black clear bottom plate (Nalge Nunc International, Rochester, N.Y.). Compound was diluted by the addition of DMEM media supplemented with 10% characterized fetal bovine serum (Invitrogen, Carlsbad, Calif.). Diluted compound was transferred to a 384-well black clear bottom plate. Two-thousand five hundred osteoclast precursors (Lonza, Walkersville, Md.) were added per well in growth media containing Receptor Activator of Nuclear Factor Kappa-beta ligand (RANKL) and M-CSF (R&D Systems, Minneapolis, Minn.). Plates were incubated for 7-14 days at 37 degrees Celsius, 5% CO2, and 95% humidity to allow differentiation of osteoclast precursors. At the end of the incubation period, 10 μL of supernatant from each well was transferred to a clear 384-well plate. Tartrate-resistant acid phosphatase activity in the supernatant samples was determined using an acid phosphatase assay kit (Sigma, St. Louis, Mo.). Absorbance was measured at 550 nm using a plate reader. Data was analyzed using Prism software (Graphpad, San Diego, Calif.) to calculate IC50 values.

Assay [4] concerns the target unphosphorylated c-KIT kinase (uKIT, Seq. ID no. 2) (Homo sapiens (Human), UniProt P10721). Nature of the assay: uKit kinase assay (coupled pyruvate kinase/lactate dehydrogenase). It counts as biochemical. As to conditions: enzymatic assay, ATP 2000 μM. The protocol:
uKit Kinase (Seq. ID No. 2) Assay
Activity of unphosphorylated c-KIT kinase (uKIT, Seq. ID no. 2) was determined by following the production of ADP from the KIT kinase reaction with ATP and poly E4Y as substrates through coupling with the pyruvate kinase/lactate dehydrogenase system (e.g., Schindler et al. Science (2000) 289: 1938-1942). In this assay, the oxidation of NADH (thus the decrease at A340 nm) was continuously monitored spectrophometrically. The reaction mixture (100 μl) contained unphosphorylated KIT (12 nM), polyE4Y (1 mg/mL), MgCl2 (10 mM), pyruvate kinase (4 units), lactate dehydrogenase (0.7 units), phosphoenol pyruvate (1 mM), and NADH (0.28 mM) and ATP (2000 μM) in 90 mM Tris buffer containing 0.2% octyl-glucoside and 1% DMSO, pH 7.5. The inhibition reaction was started by mixing serial diluted test compound with the above reaction mixture. The absorption at 340 nm was monitored continuously for 4 hours at 30° C. on Synergy 2 plate reader (BioTech). Reaction rates around 3 to 4 h time frame were used to calculate % inhibitions, from which IC50 values were generated.
uKit with N-Terminal GST Fusion Used for Screening (Seq ID No. 2)

unphosphorylated c-FMS kinase (uFMS, Seq. ID no. 1), sequence (P07333 538-972): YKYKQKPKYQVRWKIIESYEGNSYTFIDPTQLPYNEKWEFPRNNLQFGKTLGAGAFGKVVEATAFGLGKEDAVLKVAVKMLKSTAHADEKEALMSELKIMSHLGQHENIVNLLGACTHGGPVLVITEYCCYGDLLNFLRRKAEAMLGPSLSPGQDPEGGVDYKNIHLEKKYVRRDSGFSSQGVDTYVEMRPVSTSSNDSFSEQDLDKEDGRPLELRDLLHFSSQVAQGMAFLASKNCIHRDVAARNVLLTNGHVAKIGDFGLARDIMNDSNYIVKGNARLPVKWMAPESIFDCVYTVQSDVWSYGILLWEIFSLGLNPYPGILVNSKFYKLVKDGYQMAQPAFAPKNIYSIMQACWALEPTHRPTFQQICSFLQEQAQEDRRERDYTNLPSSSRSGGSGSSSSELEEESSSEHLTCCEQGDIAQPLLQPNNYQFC
unphosphorylated c-KIT kinase (uKIT, Seq. ID no. 2), sequence (P10721 other isoform, or with tags, fused parts or gaps): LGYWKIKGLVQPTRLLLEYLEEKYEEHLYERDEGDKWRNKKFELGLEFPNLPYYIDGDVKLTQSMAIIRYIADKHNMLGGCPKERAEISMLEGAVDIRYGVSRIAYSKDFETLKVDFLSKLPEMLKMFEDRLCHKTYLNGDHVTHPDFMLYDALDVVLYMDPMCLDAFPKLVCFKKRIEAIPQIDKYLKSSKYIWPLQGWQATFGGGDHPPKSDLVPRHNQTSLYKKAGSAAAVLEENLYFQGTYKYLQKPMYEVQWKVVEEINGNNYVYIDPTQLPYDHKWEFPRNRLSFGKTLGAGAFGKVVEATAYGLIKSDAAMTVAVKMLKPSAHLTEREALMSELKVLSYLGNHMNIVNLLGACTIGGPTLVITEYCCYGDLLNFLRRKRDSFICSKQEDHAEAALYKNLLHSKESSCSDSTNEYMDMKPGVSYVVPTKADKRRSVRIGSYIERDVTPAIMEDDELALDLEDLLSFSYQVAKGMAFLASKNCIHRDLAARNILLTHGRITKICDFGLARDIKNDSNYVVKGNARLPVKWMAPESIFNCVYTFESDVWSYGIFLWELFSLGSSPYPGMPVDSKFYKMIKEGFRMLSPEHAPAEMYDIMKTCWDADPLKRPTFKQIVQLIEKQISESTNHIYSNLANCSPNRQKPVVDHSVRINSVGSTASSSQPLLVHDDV

`[2H]C([2H])([2H])n1cc(-c2cc(Oc3ccc(NC(=O)N4CCN(C5CCOCC5)C4=O)nc3)ccn2)cn1` [Example 6, 2-oxo-3-(tetrahydro-2H-pyran-4-yl)-N-(5-((2-(1-(trideuteromethyl)-1H-pyrazol-4-yl)pyridin-4-yl)oxy)pyridin-2-yl)imidazolidine-1-carboxamide]: the IC50 in assay [1] (read-out: uFMS) and in assay [2] was 10 to 100 nM each time.

As for `Cn1cc(-c2cc(Oc3ccc(NC(=O)N4CCN(C5CCOC(C)(C)C5)C4=O)nc3)ccn2)cn1` (stereo not shown) [Example 13, 3-(2,2-dimethyltetrahydro-2H-pyran-4-yl)-N-(5-((2-(1-methyl-1H-pyrazol-4-yl)pyridin-4-yl)oxy)pyridin-2-yl)-2-oxoimidazolidine-1-carboxamide], the IC50 lay in the range of 10 to 100 nM in assay [3], 10 to 100 nM in assay [1] (read-out: uFMS) and 100 to 1000 nM in assay [2].

Turning to `COC1(CCN2CCN(C(=O)Nc3ccc(Oc4ccnc(-c5cnn(C)c5)c4)cn3)C2=O)CC1` [Example 17, 3-(2-(1-methoxycyclopropyl)ethyl)-N-(5-((2-(1-methyl-1H-pyrazol-4-yl)pyridin-4-yl)oxy)pyridin-2-yl)-2-oxoimidazolidine-1-carboxamide], the IC50 in assay [3], in assay [1] (uFMS) and in assay [2] was 10 to 100 nM throughout.

Turning to `COC[C@H](C)N1CCN(C(=O)Nc2ccc(Oc3ccnc(-c4cnn(C)c4)c3)c(C)n2)C1=O` [Example 38, (S)-3-(1-methoxypropan-2-yl)-N-(6-methyl-5-((2-(1-methyl-1H-pyrazol-4-yl)pyridin-4-yl)oxy)pyridin-2-yl)-2-oxoimidazolidine-1-carboxamide], the IC50 in assay [3] was under 10 nM; in assay [1] (uFMS), 10 to 100 nM; in assay [4] it was under 10 nM; in assay [2] it was 10 to 100 nM.

With `CC1CN(C(=O)Nc2ccc(Oc3ccnc(-c4cnn(C)c4)c3)cn2)C(=O)N1C1CCOCC1` (stereo not shown) [Example 40, 4-methyl-N-(5-((2-(1-methyl-1H-pyrazol-4-yl)pyridin-4-yl)oxy)pyridin-2-yl)-2-oxo-3-(tetrahydro-2H-pyran-4-yl)imidazolidine-1-carboxamide], the IC50 was under 10 nM in assay [1] (read-out: uFMS), 10 to 100 nM in assay [4] and 10 to 100 nM in assay [2].

As for `COCCN1CCN(C(=O)Nc2ccc(Oc3ccnc(-c4cnc(C)s4)c3)cn2)C1=O` [Example 62, 3-(2-methoxyethyl)-N-(5-((2-(2-methylthiazol-5-yl)pyridin-4-yl)oxy)pyridin-2-yl)-2-oxoimidazolidine-1-carboxamide], the IC50 in assay [3], in assay [1] (read-out: uFMS), in assay [4] and in assay [2] was 100 to 1000 nM each time.

As to `CCc1nc(NC(=O)N2CCN(C3CCOCC3)C2=O)ccc1Oc1ccnc(-c2ccc(C)nc2)c1` [Example 63, N-(6-ethyl-5-((6′-methyl-[2,3′-bipyridin]-4-yl)oxy)pyridin-2-yl)-2-oxo-3-(tetrahydro-2H-pyran-4-yl)imidazolidine-1-carboxamide], the IC50 in assay [3] was over 1000 nM; in assay [1] (read-out: uFMS), 100 to 1000 nM; in assay [4], over 1000 nM; in assay [2], over 1000 nM.

Turning to `Cc1c(Oc2ccnc(-c3cnn(C)c3)c2)ccc(NC(=O)N2CCN(C3CCOCC3)C2=O)c1F` [Example 93, N-(2-fluoro-3-methyl-4-((2-(1-methyl-1H-pyrazol-4-yl)pyridin-4-yl)oxy)phenyl)-2-oxo-3-(tetrahydro-2H-pyran-4-yl)imidazolidine-1-carboxamide], the IC50 fell in the range of 10 to 100 nM in assay [3], 10 to 100 nM in assay [1] (read-out: uFMS) and 100 to 1000 nM in assay [2].

For the compound `Cn1cc(-c2cc(Oc3ccc(NC(=O)N4CCN(C5CCOCC5)C4=O)c(F)c3)ccn2)cn1` [Example 95, N-(2-fluoro-4-((2-(1-methyl-1H-pyrazol-4-yl)pyridin-4-yl)oxy)phenyl)-2-oxo-3-(tetrahydro-2H-pyran-4-yl)imidazolidine-1-carboxamide], the IC50 in assay [3], in assay [1] (read-out: uFMS) and in assay [2] was 10 to 100 nM in each case.

Turning to `COCCN1CCN(C(=O)Nc2cc(F)c(Oc3ccnc(-c4cnn(C)c4)c3)cc2F)C1=O` [Example 98, N-(2,5-difluoro-4-((2-(1-methyl-1H-pyrazol-4-yl)pyridin-4-yl)oxy)phenyl)-3-(2-methoxyethyl)-2-oxoimidazolidine-1-carboxamide], the IC50 lay within 10 to 100 nM in assay [3], 100 to 1000 nM in assay [1] (read-out: uFMS) and 100 to 1000 nM in assay [2].

As for `COC1(CCN2CCN(C(=O)Nc3cc(Cl)c(Oc4ccnc(-c5cnn(C)c5)c4)cc3F)C2=O)CC1` [Example 99, N-(5-chloro-2-fluoro-4-((2-(1-methyl-1H-pyrazol-4-yl)pyridin-4-yl)oxy)phenyl)-3-(2-(1-methoxycyclopropyl)ethyl)-2-oxoimidazolidine-1-carboxamide], the IC50 in assay [3], in assay [1] (read-out: uFMS) and in assay [2] was 10 to 100 nM each time.

As to `COCCN1CCN(C(=O)Nc2cc(Cl)c(Oc3ccnc(-c4cnn(C)c4)c3)cc2F)C1=O` [Example 100, N-(5-chloro-2-fluoro-4-((2-(1-methyl-1H-pyrazol-4-yl)pyridin-4-yl)oxy)phenyl)-3-(2-methoxyethyl)-2-oxoimidazolidine-1-carboxamide], the IC50 lay in the range of 10 to 100 nM in assay [3], 10 to 100 nM in assay [1] (read-out: uFMS) and 100 to 1000 nM in assay [2].

With `Cn1cc(-c2cc(Oc3ccc(NC(=O)N4CCN(C5CCOCC5)C4=O)cc3F)ccn2)cn1` [Example 102, N-(3-fluoro-4-((2-(1-methyl-1H-pyrazol-4-yl)pyridin-4-yl)oxy)phenyl)-2-oxo-3-(tetrahydro-2H-pyran-4-yl)imidazolidine-1-carboxamide], the results for the IC50 in assay [3], in assay [1] (read-out: uFMS) and in assay [2] were 100 to 1000 nM, 10 to 100 nM and over 1000 nM, respectively.

For `Cn1cc(-c2cc(Oc3ccc(NC(=O)N4CCN(C5CCOCC5)C4=O)c(F)c3Cl)ccn2)cn1` [Example 113, N-(3-chloro-2-fluoro-4-((2-(1-methyl-1H-pyrazol-4-yl)pyridin-4-yl)oxy)phenyl)-2-oxo-3-(tetrahydro-2H-pyran-4-yl)imidazolidine-1-carboxamide], the IC50 is under 10 nM in assay [1] (read-out: uFMS), 10 to 100 nM in assay [4] and 100 to 1000 nM in assay [2].

`N#CCC(=O)Nc1cc(Oc2cc(F)c(NC(=O)N3CCN(C4CCOCC4)C3=O)cc2Cl)ccn1` [Example 114, N-(5-chloro-4-((2-(2-cyanoacetamido)pyridin-4-yl)oxy)-2-fluorophenyl)-2-oxo-3-(tetrahydro-2H-pyran-4-yl)imidazolidine-1-carboxamide]: the IC50 in assay [1] (read-out: uFMS) and in assay [4] was over 1000 nM throughout.

The record behind these values is patent US9133183B2, “Imidazolidinones and analogs exhibiting anti-cancer and anti-proliferative activities” (Deciphera Pharmaceuticals, LLC, priority 2013, dated 2015).
